Results: ChEMBL document CHEMBL1201862, “PubChem BioAssay data set” (2004)
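Test compounds were applied to cells in 96-well plates for 48 hours at 5 doses. GI50 marks 50% less growth.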 Activity calls are given as the source filed them. Rule as the data show it: active = GI50 up to about 1.1 µM and inactive = higher.

Experiments:
Test in all cases: NCI tumour cell line growth inhibition, 48 h
786-0 = system: 786-0
A498 = system: A498
ACHN = system: ACHN
CAKI-1 = system: CAKI-1
CCRF-CEM = system: CCRF-CEM
COLO 205 = system: COLO 205
DLD-1 = system: DLD-1
DMS-273 = system: DMS-273
HCC 2998 = system: HCC 2998
HCT-116 = system: HCT-116
HL-60 = system: HL-60
HOP-62 = system: HOP-62
HOP-92 = system: HOP-92
IGROV-1 = system: IGROV-1
K562 = system: K562
LXFL 529 = system: LXFL 529
M14 = system: M14
M19-MEL = system: M19-MEL
MOLT-4 = system: MOLT-4
Malme-3M = system: Malme-3M
NCI-H226 = system: NCI-H226
NCI-H23 = system: NCI-H23
NCI-H460 = system: NCI-H460
NCI-H522 = system: NCI-H522
OVCAR-4 = system: OVCAR-4
RPMI-8226 = system: RPMI-8226
RXF 631 = system: RXF 631
SF-268 = system: SF-268
SF-539 = system: SF-539
SK-MEL-28 = system: SK-MEL-28
SK-MEL-2 = system: SK-MEL-2
SK-OV-3 = system: SK-OV-3
SN12C = system: SN12C
SNB-75 = system: SNB-75
SNB-78 = system: SNB-78
SR = system: SR
UACC-62 = system: UACC-62
A549 = system: A549
DMS-114 = system: DMS-114
EKVX = system: EKVX
HCT-15 = system: HCT-15
HOP-18 = system: HOP-18
HT-29 = system: HT-29
KM-20L2 = system: KM-20L2
KM12 = system: KM12
LOX IMVI = system: LOX IMVI
OVCAR-3 = system: OVCAR-3
OVCAR-5 = system: OVCAR-5
OVCAR-8 = system: OVCAR-8
RXF 393 = system: RXF 393
SF-295 = system: SF-295
SK-MEL-5 = system: SK-MEL-5
SNB-19 = system: SNB-19
SW-620 = system: SW-620
TK-10 = system: TK-10
U-251 = system: U-251
UACC-257 = system: UACC-257
UO-31 = system: UO-31
XF498 = system: XF498

COc1cc([C@@H]2Oc3cc4oc(-c5ccccc5)cc(=O)c4c(O)c3O[C@H]2OC)ccc1O
GI50 (786-0): 8.2 µM (inactive)
GI50 (A498): 14.3 µM (inactive)
GI50 (ACHN): 11 µM (inactive)
GI50 (CAKI-1): 19.4 µM (inactive)
GI50 (CCRF-CEM): 3.7 µM (inactive)
GI50 (COLO 205): 20.5 µM (inactive)
GI50 (DLD-1): 7.69 µM (inactive)
GI50 (DMS-273): 4.03 µM (inactive)
GI50 (HCC 2998): 13.2 µM (inactive)
GI50 (HCT-116): 7.16 µM (inactive)
GI50 (HL-60): 2.85 µM (inactive)
GI50 (HOP-62): 13.2 µM (inactive)
GI50 (HOP-92): 23.6 µM (inactive)
GI50 (IGROV-1): 22.4 µM (inactive)
GI50 (K562): 5.71 µM (inactive)
GI50 (LXFL 529): 11.1 µM (inactive)
GI50 (M14): 11 µM (inactive)
GI50 (M19-MEL): 7.4 µM (inactive)
GI50 (MOLT-4): 4.91 µM (inactive)
GI50 (Malme-3M): 14.3 µM (inactive)
GI50 (NCI-H226): 19.3 µM (inactive)
GI50 (NCI-H23): 10.8 µM (inactive)
GI50 (NCI-H460): 4.48 µM (inactive)
GI50 (NCI-H522): 5.97 µM (inactive)
GI50 (OVCAR-4): 14.6 µM (inactive)
GI50 (RPMI-8226): 5.71 µM (inactive)
GI50 (RXF 631): 17.8 µM (inactive)
GI50 (SF-268): 6.03 µM (inactive)
GI50 (SF-539): 15 µM (inactive)
GI50 (SK-MEL-28): 4.69 µM (inactive)
GI50 (SK-MEL-2): 14.8 µM (inactive)
GI50 (SK-OV-3): 17.8 µM (inactive)
GI50 (SN12C): 12.1 µM (inactive)
GI50 (SNB-75): 12.4 µM (inactive)
GI50 (SNB-78): 18.2 µM (inactive)
GI50 (SR): 4.14 µM (inactive)
GI50 (UACC-62): 15 µM (inactive)

O=c1c(O)c(-c2ccc(O)c(O)c2)oc2cc(O)ccc12 [FISETIN]
GI50 (786-0): 24.8 µM (inactive)
GI50 (A498): 26.3 µM (inactive)
GI50 (A549): 30.3 µM (inactive)
GI50 (ACHN): 18.7 µM (inactive)
GI50 (CCRF-CEM): 8.99 µM (inactive)
GI50 (COLO 205): 47.4 µM (inactive)
GI50 (DLD-1): 20.2 µM (inactive)
GI50 (DMS-114): 15.2 µM (inactive)
GI50 (DMS-273): 11.5 µM (inactive)
GI50 (EKVX): 25.4 µM (inactive)
GI50 (HCC 2998): 18.1 µM (inactive)
GI50 (HCT-116): 16.3 µM (inactive)
GI50 (HCT-15): 14.4 µM
GI50 (HL-60): 28.7 µM (inactive)
GI50 (HOP-18): 21.2 µM (inactive)
GI50 (HOP-62): 20.2 µM (inactive)
GI50 (HOP-92): 28.2 µM (inactive)
GI50 (HT-29): 25.8 µM (inactive)
GI50 (IGROV-1): 18.6 µM (inactive)
GI50 (K562): 25 µM (inactive)
GI50 (KM-20L2): 27.2 µM (inactive)
GI50 (KM12): 5.62 µM (inactive)
GI50 (LOX IMVI): 13.6 µM (inactive)
GI50 (LXFL 529): 15 µM (inactive)
GI50 (M14): 18.2 µM (inactive)
GI50 (M19-MEL): 26 µM (inactive)
GI50 (MOLT-4): 17 µM (inactive)
GI50 (Malme-3M): 20.4 µM (inactive)
GI50 (NCI-H226): 9.79 µM (inactive)
GI50 (NCI-H23): 11.6 µM (inactive)
GI50 (NCI-H460): 8.05 µM (inactive)
GI50 (NCI-H522): 13.6 µM (inactive)
GI50 (OVCAR-3): 19.9 µM (inactive)
GI50 (OVCAR-4): 31 µM (inactive)
GI50 (OVCAR-5): 17.2 µM (inactive)
GI50 (OVCAR-8): 21.8 µM (inactive)
GI50 (RPMI-8226): 26.8 µM (inactive)
GI50 (RXF 393): 23.9 µM (inactive)
GI50 (SF-268): 24.9 µM (inactive)
GI50 (SF-295): 18.5 µM (inactive)
GI50 (SF-539): 12 µM (inactive)
GI50 (SK-MEL-28): 21.7 µM (inactive)
GI50 (SK-MEL-2): 8.75 µM (inactive)
GI50 (SK-MEL-5): 13.1 µM (inactive)
GI50 (SK-OV-3): 9.66 µM (inactive)
GI50 (SN12C): 20.8 µM (inactive)
GI50 (SNB-19): 10.7 µM (inactive)
GI50 (SNB-75): 5.27 µM (inactive)
GI50 (SNB-78): 20.1 µM (inactive)
GI50 (SR): 18 µM (inactive)
GI50 (SW-620): 23.8 µM (inactive)
GI50 (TK-10): 29.7 µM (inactive)
GI50 (U-251): 7.14 µM (inactive)
GI50 (UACC-257): 22.3 µM (inactive)
GI50 (UACC-62): 10.7 µM (inactive)
GI50 (UO-31): 14.5 µM (inactive)
GI50 (XF498): 20.9 µM (inactive)
